Consider two molecules from publication PMC3494675, “Structure-Function Analysis of the Glioma Targeting NFL-TBS.40-63 Peptide Corresponding to the Tubulin-Binding Site on the Light Neurofilament Subunit” (PLoS ONE, 2012).

For data set [1], the system named is T98G human glioblastoma cells. As to the kind of experiment: Disintegration of the microtubule network in T98G cells (anti-tubulin immunostaining, cell counting). The data set is classed as cell-based. Conditions: T98G cells, 10 µM biotinylated peptide, 6 hours; anti-tubulin immunostaining; minimum 200 cells per experiment; mean ± S.E.M., triplicated. The method, boiled down: (§1)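 Cells on cover slips were cultured 6 h with 10 μM biotinylated peptide, permeabilized, and stained with anti-β-tubulin plus fluorescent streptavidin. By fluorescence/confocal microscopy, ≥200 cells per experiment were scored for peptide uptake and for a normal versus destroyed microtubule network; at least three repeats.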

For data set [2], the system named is glioma cells. Conditions: shown previously; cited from earlier work. From the text: However, contrary to the known CPPs, which are composed mostly of arginines and lysines, the NFL-TBS.40-63 peptide contains only 2 arginine residues and no lysine. […] In addition, the cell penetrating activity appears to correlate with a particular structural pattern.
Data set [3] has as its system T98G human glioblastoma cells. As to the kind of experiment: Peptide incorporation into T98G cells (immunocytochemistry, cell counting). The data set is classed as cell-based. Particulars: for Peptide incorporation (% of cells): T98G cells, 10 µM biotinylated peptide, 6 hours, Alexa-labeled avidin/streptavidin fluorescence microscopy, minimum 200 cells per experiment, mean ± S.E.M., triplicated. The method, boiled down:
as §1

The nature of data set [4]: Secondary structure estimation from CD spectra. The data set is classed as physicochemical. Particulars: Reed's reference set. The procedure:
(§2) Circular dichroism (CD) spectra were measured in a J-810 CD spectrometer (Jasco, Japan) in step mode (bandwidth: 2 nm; interval: 0.1 nm; response time: 0.125 s). The spectra were averaged over 3 scans to increase the signal to noise ratio. To optimize the measurements, a 1 cm×0.2 cm mini-quartz cell with four windows (Hellema, Germany) was used in such a way that the spectra from 260 to 200 nm were measured with a 1 cm pathlength and those between 220 and 185 nm with 0.2 cm pathlength. After normalization for pathlength (1 cm), the superimposition of two separated spectra in the 200–220 nm region was verified and the entire spectra reconstituted. The temperature of measurement was controlled with a Peltier-effect temperature controller, and was usually 20°C. The structural stability of peptides was studied by measuring the variation in CD signal at 220 nm (bandwidth: 10 nm; interval: 1 s; response time: 0.5 s; pathlength: 1 cm) when the temperature was increased by 1°C/min from 20 to 85°C. All the CD experiments were performed with 20 µM peptide under 3 buffer conditions: pure water, 2 mM SDS and 10 mM potassium phosphate pH 7.4 with 200 mM KF.
The secondary structures were estimated from the CD spectra with Jasco secondary structure estimation software. The spectra from […] were decomposed to α-helix, β-sheet, β-turn and random coil elements using either Reed's or Yang's reference set as reference spectrum of each element as described, [38]. We usually obtained better fits using Reed's reference.

The subject of data set [5] is Human adrenal carcinoma SW13 cells. Put plainly: Effect on MT network of SW13 cells (immunocytochemistry). The data set is classed as cell-based. Conditions: 10 µM, 6 hours. As for the experimental part:
(§3) Figure 1 Internalization and effects on glioblastoma T98G cells of the wild type peptide NFL-TBS.40-63 and peptides from the alanine scan. (A): Human glioblastoma T98G cells were incubated in the presence of different peptides at 10 µM during 6 hours. MTs were detected by immunostaining using an anti-tubulin antibody (red), and biotinylated peptides were detected using Alexa-labeled avidin (green). While the original NFL-TBS.40-63 peptide is able to penetrate in these cells, the replacement of valine-14 by alanine typically abolished this property. White bars, 20 µm. (B) Human adrenal carcinoma SW13 cells were incubated in the presence of NFL-TBS.40-63 peptide (10 µM, 6 hours). MTs appear in red, peptide in green, nuclei in blue. White bars, 20 µm. (C): We quantified by microscopy the percentage of T98G cells containing the peptide and those with a destroyed MT network. Experiments were triplicated and a minimum of 200 cells was examined in each experiment. Data are presented as mean and S.E.M. (bars). Asterisks indicate significant level versus control: * p<0.05; ** p<0.005; *** p<0.001. As glioblastoma cells are known to have multiple mutations and abnormalities, the shaded area corresponds to the percentage of cells where MTs are disorganized even in the absence of peptide.
(§4) Cells were plated on cover slips and cultured in media containing biotinylated peptides (10 µM) for 6 hours. […]

Data set [6] shares this test system. As to the kind of experiment: Peptide entry into SW13 cells (immunocytochemistry). Conditions: 10 µM, 6 hours. In kind it is cell-based. The procedure: as §3, §4
A short description of data set [7]: Structural (thermal) stability by circular dichroism at 220 nm. In kind it is physicochemical. The procedure: as §2, with “The structural stability of peptides was studied by measuring the variation in CD signal at 220 nm (bandwidth: 10 nm; interval: 1 s; response time: 0.5 s; pathlength: 1 cm) when the temperature was increased by 1°C/min from 20 to 85°C.” left out
A general note: CD spectra are sensitive to the conformation of chiral molecules.

Setting [8] is: KF/phosphate buffer pH 7.4, 20 µM.

Peptide text beside a SMILES is read from it. * marks the point of attachment. Biotin = O=C1N[C@H]2[C@H](CS[C@H]2CCCCC(=O)*)N1

As to `CC(C)C[C@H](NC(=O)[C@H](CO)NC(=O)[C@@H](NC(=O)[C@H](CCCNC(=N)N)NC(=O)[C@H](CCCNC(=N)N)NC(=O)[C@H](CO)NC(=O)[C@H](Cc1ccc(O)cc1)NC(=O)[C@H](CO)NC(=O)[C@H](CO)NC(=O)[C@H](CO)NC(=O)[C@H](CO)NC(=O)CNC(=O)[C@H](CO)NC(=O)CCCC[C@@H]1SC[C@@H]2NC(=O)N[C@@H]21)C(C)C)C(=O)N[C@@H](CO)C(=O)N[C@@H](CO)C(=O)N[C@@H](CO)C(=O)N[C@H](C(=O)N1CCC[C@H]1C(=O)N[C@@H](C)C(=O)N[C@@H](CO)C(=O)N[C@@H](Cc1ccc(O)cc1)C(=O)N[C@@H](CO)C(=O)N[C@@H](CO)C(=O)N[C@@H](Cc1ccc(O)cc1)C(N)=O)C(C)C` [NFL-SBT, reference compound] (Biotin-SGSSSSYSRRVSLSSSVPASYSSY-NH2), the “Disintegration of MT (% of cells)” value in data set [1] was 32.41±0.87 % of cells. In addition, the “Cell penetration / internalization (in words)” value in data set [2] was “do not penetrate in cells”. Also, the “Peptide incorporation (% of cells)” value in data set [3] is on record as 0 % of cells.
Regarding `CC(C)C[C@H](NC(=O)[C@H](CO)NC(=O)[C@H](CO)NC(=O)[C@H](CO)NC(=O)[C@@H](NC(=O)[C@@H]1CCCN1C(=O)[C@H](C)NC(=O)[C@H](CO)NC(=O)[C@H](Cc1ccc(O)cc1)NC(=O)[C@H](CO)NC(=O)[C@H](CO)NC(=O)[C@H](Cc1ccc(O)cc1)NC(=O)CCCC[C@@H]1SC[C@@H]2NC(=O)N[C@@H]21)C(C)C)C(=O)N[C@@H](CO)C(=O)N[C@H](C(=O)N[C@@H](CCCNC(=N)N)C(=O)N[C@@H](CCCNC(=N)N)C(=O)N[C@@H](CO)C(=O)N[C@@H](Cc1ccc(O)cc1)C(=O)N[C@@H](CO)C(=O)N[C@@H](CO)C(=O)N[C@@H](CO)C(=O)N[C@@H](CO)C(=O)NCC(=O)N[C@@H](CO)C(N)=O)C(C)C` [NFL-TBS.40-63] (Biotin-YSSYSAPVSSSLSVRRSYSSSSGS-NH2), the “Disintegration of MT (% of cells)” value in data set [1] is recorded as 58.4±2.3 % of cells. Also, in data set [4] (2 mM SDS, 20 µM), the random coil content was 40%, the α-helix content is 20% and the β-sheet content is recorded as 40%. In addition, in data set [4] (setting [8]), the random coil content is listed as 36%, the α-helix content is listed as 7% and the β-sheet content is 56%. Further, in data set [4] (pure water, 20 µM, 20°C), the random coil content is 75% and the β-sheet content is given as 25%. For the same molecule, the “Effect on MT network of SW13 cells” value in data set [5] is recorded as “without affecting the MT network”. The “Entry into SW13 cells” value in data set [6] is “enters in SW13 cells”. The “Refolding on lowering temperature” value in data set [7] (CD 220 nm, KF/phosphate buffer, 70 to 10°C at 1°C per min and after 12 hours at 20°C) is “no refolding was observed”. In addition, in data set [7] (CD signal at 220 nm, 20 µM peptide, KF/phosphate buffer (10 mM potassium phosphate pH 7.4, 200 mM KF), 1°C/min), the “Tm of thermal unfolding” value is “about 40 °C”. In data set [7] (CD, 20 µM peptide in 2 mM SDS, up to 70°C), the “Structural stability with increasing temperature” value is listed as “stable”. The “Peptide incorporation (% of cells)” value in data set [3] is recorded as 51.2±4.2 % of cells. Also, the “Cell penetration of the peptide once heated” value in data set [3] (peptide heated in KF/phosphate buffer (thermally unfolded)) is “could not penetrate into the cells”.
